Entries after “also recorded” stand apart in the source; their conditions may differ. Where two headings read alike, the source gives them in different places.
Experiments:
human α-synuclein = molecular target: T1, human α-synuclein (Homo sapiens, UniProt P37840); experiment: In vitro Thioflavin T assay of α-synuclein aggregation; assay type: biochemical; settings: compounds at 50 μM, 50 μM α-synuclein, ThT fluorescence at 40 hours
T1 construct: made in house; host or cells: E. coli
Procedure: In Vitro Thioflavin T Assay to Determine the Effects of Compounds on α-Synuclein Aggregation.
The ammonium sulfate pellet was washed with an equal volume of 100 mM ammonium acetate in ethanol, pelleted via centrifugation, washed twice with ethanol, dried overnight, resuspended in 10 mM Tris pH 7.4, and passed through a 50 kDa cut-off column. The assay was conducted in 96-well black microplates with a single 2 mm bead in each well, 40 μM ThioflavinT, 1% DMSO, 50 μM α-synuclein, 100 mM sodium chloride, 9.3 mM potassium phosphate pH 7.3, 4.6 mM Tris pH 7.4 (added as the solvent for α-synuclein or independently for controls lacking α-synuclein), and compounds at 1 μM or 50 μM. […] Readings were performed hourly for up to 73 hours. The effect of compounds on α-synuclein aggregation in the assay was determined with data from 40 hours, following the plateau of the fluorescent signal in the untreated (no compound) control wells containing α-synuclein. Fluorescence values for each compound with α-synuclein were first adjusted by subtracting the average fluorescence of the compound in the absence of α-synuclein.

[1] = molecular target: T2, α-synuclein seeded by E. coli CsgA (Homo sapiens, UniProt P37840); experiment: In vitro Thioflavin T assay of CsgA-seeded α-synuclein aggregation; assay type: biochemical; settings: compounds at 50 μM; 2 μM CsgA, 50 μM α-synuclein; ThT fluorescence at 40 hours; read-out: Inhibition of Aggregation CsgA-seeded αSyn
T2 construct: made in house; host or cells: E. coli NEB 3016 slyD::kan (CsgA, pET11d); E. coli (α-synuclein)
Procedure: In Vitro Thioflavin T Assay to Determine the Effects of Compounds on CsgA-Seeded α-Synuclein Aggregation.
To induce over-expression of CsgA, 0.5 mM IPTG was added to cultures with an optical density at 600 nm (OD600) of 0.8-1, and induced cells were cultured at 37° C. for 1 hour prior to harvest via centrifugation. […] Buffers with imidazole were freshly prepared prior to the protein purification. Purified CsgA was passed through a 30 kDa molecular weight cut-off filter and through a desalting column. All steps of the CsgA purification in the absence of guanidine hydrochloride were conducted in rapid succession with as little delay as possible. […] The ammonium sulfate pellet was washed with an equal volume of 100 mM ammonium acetate in ethanol, pelleted via centrifugation, washed twice with ethanol, dried overnight, resuspended in 10 mM Tris pH 7.4, and passed through a 50 kDa cut-off column. The assay was conducted in 96-well black microplates with a single glass 2 mm bead per well, 40 μM ThioflavinT, 1% DMSO, 2 μM CsgA, 50 μM α-synuclein, 100 mM sodium chloride, 9.3 mM potassium phosphate pH 7.3, and compounds at 50 μM. […] The effect of compounds on CsgA-seeded α-synuclein aggregation in the assay was determined with data from 40 hours, following the plateau of the fluorescent signal in the untreated (no compound) control wells containing CsgA and α-synuclein. Fluorescence values for each compound with CsgA and α-synuclein were first adjusted by subtracting the average fluorescence of the compound in the absence of CsgA and α-synuclein.

[2] = tested on: αSyn aggregates in brain of Thy1-αSyn mice (ASO); experiment: Brain αSyn aggregates in germ-free ASO mice mono-colonized with WT E. coli, EGCG in drinking water; assay type: in vivo, mouse; settings: EGCG-treated vs vehicle
Procedure: Germ-free Thy1-αSyn mice (ASO) mono-colonized with WT E. coli at 5-6 weeks of age, and given water alone (Vehicle: Veh) or treated with EGCG ad lib in drinking water (+EGCG). RNA was extracted from fecal pellets and csgA expression quantified by qRT-PCR, relative to rrsA. FIG. 1C is a graph showing fold-change in csgA expression. Motor function was assessed at 15-16 weeks of age by quantifying beam traversal time (FIG. 1D), pole descent time (FIG. 1E), nasal adhesive removal time (FIG. 1F), hindlimb clasping score (FIG. 1G), and wire hang tests (FIG. 1H). Time to cross, time to descent, time to remove, and hindlimb score were lower in the EGCG-treated mice, while time to fall was higher in the EGCG-treated mice compared to vehicle treated control. […]
FIGS. 1L-M show quantification of insoluble αSyn fibrils in the striatum (FIG. 1L) and ventral midbrain (FIG. 1M) by dot blot assay. Thin sections of brain were stained for Iba1 (microglia), 3D cellular reconstructions generated, and morphological characteristics quantified from microglia resident in the striatum (FIG. 1N) and substantia and nigra (FIG. 1O). n=3 (FIGS. 1A, 1B, 1N, 1O), n=8 (FIG. 1C), n=10-11 (FIGS. 1D-I), n=4 (FIGS. 1L-M). […] Data analyzed by one-way ANOVA with Tukey post-hoc test for FIG. 1A, two-tailed Mann-Whitney for FIGs. […]

O=C(O[C@@H]1Cc2c(O)cc(O)cc2O[C@@H]1c1cc(O)c(O)c(O)c1)c1cc(O)c(O)c(O)c1 [EGCG, epigallocatechin gallate]
inhibition at 50 µM (human α-synuclein; read-out: Inhibition of Aggregation αSyn): 99% | inhibition at 50 µM (human α-synuclein; read-out: Inhibition of Aggregation αSyn (compound activity range)): > 60% | inhibition at 50 µM [1]: 77% | αSyn aggregation in striatum and midbrain [2]: preventing αSyn aggregation in both the striatum and midbrain | Proteinase K resistant αSyn aggregates in the substantia nigra ([2]; immunofluorescence microscopy): lower; also recorded: Fewer

From patent US11147792B2, “Inhibitors of microbially induced amyloid” (Axial Therapeutics, Inc, priority 2017, dated 2021)
